Results on one molecule are retold here after US20130023504A1, “Modulation of Prostaglandin/Cyclooxygenase Metabolic Pathways” (HUNTER-FLEMING LIMITED, priority 2006, published 2013).

The subject of the assay is rats with DSS-induced colitis. Description: DSS-induced colitis in rats, 7-day i.p. pre-treatment. The following applies: for Body weight: DSS (5%) day 7-14. The format is in vivo, rat. From the text:
All experimental protocols and procedures were in agreement with the directive 86/609/CEE of the European Community, for the use of laboratory animals. Male Wistar rats (180-200 g), purchased from Charles River (L'Arbresle, France) were fed with rodent laboratory chow and were given water ad libitum.
After a 7-day adaptation period, animals were divided into two control groups (sham-control and 7β-hydroxy-EPIA-treated control group and two colitis groups (colitis and 7β-hydroxy-EPIA-treated colitis). 7β-Hydroxy-EPIA (0.01, 0.1, and 1 mg/kg body weight dissolved in DMSO) or DMSO alone (vehicle) was administered i.p. once a day for 7 days, from day 0 to day 7. Colitis was induced from day 7 to 14 by addition of DSS (molecular weight 36-50 kDa; MP Biomedicals, France) to drinking water. The two control groups received tap water only.
At day 9, 11, 13, 14, body weight, colon length, stool consistency, were recorded and fresh rectal bleeding evaluated by ocular inspection. The severity of colonic damage was blindly scored as described by Mabley et al., 2001, Inflamm. Res.; 50: 561-569) (0: well-formed pellets and no colon damage; 1: colon with a small amount of blood present mixed with feces; 2: colon with large amount of blood present with faeces; 3: colon filled with blood and no faeces).
A portion of the proximal colon (1 cm) was fixed in 4% formaldehyde (Labonord, Templemars, France) and embedded in paraffin. Tissue sections (5 μm) were prepared, thereafter cleared, hydrated and stained either with hematoxylin/eosin or with Alcian blue according to standard protocols for histological evaluation of colonic damage and mucus goblet cells content, respectively.
The colon was opened along the mesenteric border, and the epithelial cells were scrapped away with the blunt edge of a glass slide then weighed, washed and centrifuged. The pellet was homogenized in 9 volumes TKE buffer (10 mM Tris-HCl; 150 mM KCl; 1 mM EDTA; 0.25 mM PMSF, pH 7.4) and then frozen at −80° C. until further use. The protein content of homogenates were measured according to Lowry et al. (J Biol Chem 1951; 193: 265-74).
MPO activity was assessed in homogenates using the o-dianisidine method of Krawisz et al. (Gastroenterology 1984; 87(6):1344-50) with the modifications of Pelissier et al. (Steroids 2006; 71(3):240-8). MPO activity was expressed as the amount of enzyme necessary to produce a per minute change in absorbance at 460 nm using the extinction coefficient for oxidized o-dianisidine (1.13×10^4 mol^−1.cm^−1).
Lipid peroxidation (Tbars) was measured by a modification by Albrecht et al., (1992, Toxicol. Lett; 63: 91-96) of the method described by Ohkawa et al. (Anal Biochem 1979; 95:315-58). Absorbance of the red 1:2 adduct malondialdehyde-thiobarbituric acid (Sigma-Aldrich, St Quentin-Fallavier, France) was measured at 532 nm (extinction coefficient used: 0.156 μmol^−1 cm^−1). The carbonyl contents in oxidized proteins (Prot CO) were assessed by the method of Levine et al. (Methods Enzymol 1990; 186:464-78). The non-protein sulfhydryl group content (mostly GSH) was taken as the anti-oxidant defense marker in homogenates and determined by the method of Sedlak and Lindsay (Anal Biochem 1968; 25(1):192-205).
Commercially available EIA kits were used for the determination of PGE2 levels (Oxford Biomedical Research, UK) and 15d-PGJ2 levels (Assay designs, Euromedex, France) in colonic supernatants obtained from fresh homogenates. Measurement of PGD2 levels was obtained using the prostaglandin D2-MOX EIA kit (Cayman Chemical, Euromedex). In this case, and prior to assay, the fresh samples were immediately treated with the MOX-HCl reagent which converted PGD2 into PGD2-MOX, thus preventing any further chemical degradation.
Total RNA from fresh colonic samples (300 mg) was extracted using Trizol Reagent (Invitrogen, Cergy-Pontoise, France). […]

Marks after values point to notes of the source that are not given here.

`CC12CCC3C(C1CCC2=O)[C@@H](O)C[C@H]1C[C@@H](O)CCC31C` (stereo partly drawn) [Compound 7β-OH-EPIA, 7β-hydroxy-EPIAndrosterone]: the “colitis damage and tissue inflammation” value (0.01 mg/kg) is on record as “completely prevented”. The Body weight (0.01 mg/kg body weight i.p. day 0-7, day 14) is on record as 297.5 ± 9.5^a g; the Body weight (0.1 mg/kg body weight i.p. day 0-7, day 14) is 272.1 ± 6^b g; the Body weight (1 mg/kg body weight i.p. day 0-7, day 14) was 267.3 ± 7.7^b g. Further, the “DSS-induced production of colonic PGE2” value (0.01 mg/kg from D0 to D7) is on record as “completely prevented”. Also, the “colonic level of 15d-PGJ2” value (0.01 mg/kg from D0 to D7, DSS) is reported as “dramatically increasing”. Also, the Colon length is 16 ± 0.01^c cm (0.01 mg/kg, day 14); 15.6 ± 0.3^c cm (0.1 mg/kg, day 14); 14.2 ± 0.6^b cm (1 mg/kg, day 14). Moreover, the Epididymis weight reads like this: (0.01 mg/kg, day 14) 2.5 ± 0.03^a g; (0.1 mg/kg, day 14) 1.9 ± 0.14^b g; (1 mg/kg, day 14) 1.9 ± 0.1^b g. Besides, the Liver weight is given as 12.1 ± 0.3^a g (0.01 mg/kg, day 14); 12.3 ± 0.6^a g (0.1 mg/kg, day 14); 11.9 ± 0.4^a g (1 mg/kg, day 14). The Spleen weight is on record as 0.8 ± 0.02^a g (0.01 mg/kg, day 14); 1.03 ± 0.2^a g (0.1 mg/kg, day 14); 0.82 ± 0.06^a g (1 mg/kg, day 14). Where the note is “0.01, 0.1 mg/kg, day 14”, the “diarrhea and rectal bleeding” value is “suppression”. For the setting “all dose levels, 0.01, 0.1 and 1 mg/kg, vs colitis group”, the “MPO activity in colonic mucosa” value is reported as “significantly decreased”. Besides, the “oxidative stress parameters (Prot CO, Tbars, GSH) in colonic tissue” value (day 13 and 14, all dose levels) is “restored”. Further, where the note is “pre-treatment day 0 to day 7”, the “increase in COX-2 and mPGES-1 mRNA synthesis by DSS” value was “suppressed”.
